Measurements taken from the supplement of paper PMC10307832.

Columns and labels:
Assay in all cases: relative viability (nuclei count vs DMSO), 5 days (fraction); higher = more cells survive
Motesanib + OSI-027 = compound: CC1(C)CNc2cc(NC(=O)c3cccnc3NCc3ccncc3)ccc21 [Motesanib] + COc1cccc2cc(-c3nc([C@H]4CC[C@H](C(=O)O)CC4)n4ncnc(N)c34)[nH]c12 [OSI-027] (partner 0.5 µM)
Outline: (§1)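 Five library-drug doses in √10 steps were combined with a fixed anchor-drug dose, or a single drug was given alone, by pin tool to lung cancer cell lines in 1536-well plates the day after seeding. Nuclei were stained and counted after 5 days. Relative viability is the nuclei count in treated wells over that in vehicle wells, taken as the median of duplicate plates.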

Motesanib + Pictilisib = compound: CC1(C)CNc2cc(NC(=O)c3cccnc3NCc3ccncc3)ccc21 [Motesanib] + CS(=O)(=O)N1CCN(Cc2cc3nc(-c4cccc5[nH]ncc45)nc(N4CCOCC4)c3s2)CC1 [Pictilisib] (partner 1 µM)
Outline: as §1

Motesanib + Linsitinib = compound: CC1(C)CNc2cc(NC(=O)c3cccnc3NCc3ccncc3)ccc21 [Motesanib] + C[C@]1(O)C[C@@H](c2nc(-c3ccc4ccc(-c5ccccc5)nc4c3)c3c(N)nccn32)C1 [Linsitinib] (partner 1 µM)
Outline: as §1

Motesanib + Tozasertib = compound: CC1(C)CNc2cc(NC(=O)c3cccnc3NCc3ccncc3)ccc21 [Motesanib] + Cc1cc(Nc2cc(N3CCN(C)CC3)nc(Sc3ccc(NC(=O)C4CC4)cc3)n2)n[nH]1 [Tozasertib] (partner 0.1 µM)
Outline: as §1

Row | Cell Line | relative viability (Motesanib + OSI-027; first compound 0.01 µM) | relative viability (Motesanib + OSI-027; first compound 0.03162 µM) | relative viability (Motesanib + OSI-027; first compound 0.1 µM) | relative viability (Motesanib + OSI-027; first compound 0.3162 µM) | relative viability (Motesanib + OSI-027; first compound 1 µM) | relative viability (Motesanib + Pictilisib; first compound 0.01 µM) | relative viability (Motesanib + Pictilisib; first compound 0.03162 µM) | relative viability (Motesanib + Pictilisib; first compound 0.1 µM) | relative viability (Motesanib + Pictilisib; first compound 0.3162 µM) | relative viability (Motesanib + Pictilisib; first compound 1 µM) | relative viability (Motesanib + Linsitinib; first compound 0.01 µM) | relative viability (Motesanib + Linsitinib; first compound 0.03162 µM) | relative viability (Motesanib + Linsitinib; first compound 0.1 µM) | relative viability (Motesanib + Linsitinib; first compound 0.3162 µM) | relative viability (Motesanib + Linsitinib; first compound 1 µM) | relative viability (Motesanib + Tozasertib; first compound 0.01 µM) | relative viability (Motesanib + Tozasertib; first compound 0.03162 µM) | relative viability (Motesanib + Tozasertib; first compound 0.1 µM) | relative viability (Motesanib + Tozasertib; first compound 0.3162 µM) | relative viability (Motesanib + Tozasertib; first compound 1 µM)
1 | NCI-H2023 | 0.453 | 0.374 | 0.373 | 0.404 | 0.429 | 0.234 | 0.226 | 0.276 | 0.239 | 0.238 | 0.756 | 0.695 | 0.715 | 0.587 | 0.643 | 0.379 | 0.309 | 0.346 | 0.325 | 0.286
2 | NCI-H2085 | 0.812 | 0.892 | 0.753 | 0.67 | 0.691 | 0.377 | 0.447 | 0.405 | 0.509 | 0.468 | 0.936 | 0.853 | 1.13 | 0.996 | 0.886 | 0.852 | 0.749 | 0.886 | 0.818 | 0.797
3 | NCI-H2087 | 0.427 | 0.544 | 0.585 | 0.705 | 0.573 | 0.695 | 0.794 | 0.705 | 0.988 | 0.843 | 0.885 | 1.03 | 1.16 | 0.998 | 1.1 | 0.208 | 0.204 | 0.261 | 0.208 | 0.258
4 | NCI-H2126 | 0.815 | 0.737 | 0.674 | 0.774 | 0.781 | 0.531 | 0.539 | 0.476 | 0.553 | 0.508 | 0.736 | 0.73 | 0.719 | 0.74 | 0.701 | 0.883 | 0.922 | 0.915 | 0.855 | 0.867
5 | NCI-H2228 | 0.572 | 0.455 | 0.489 | 0.689 | 0.572 | 0.442 | 0.356 | 0.387 | 0.365 | 0.535 | 0.685 | 0.544 | 0.689 | 0.5 | 0.509 | 0.355 | 0.184 | 0.289 | 0.272 | 0.251
6 | NCI-H2347 | 0.411 | 0.364 | 0.357 | 0.51 | 0.493 | 0.476 | 0.803 | 0.382 | 0.456 | 0.678 | 0.985 | 1.01 | 1.06 | 1 | 1 | 0.466 | 0.445 | 0.548 | 0.524 | 0.443
7 | NCI-H2405 | – | 0.59 | 0.683 | 0.663 | 0.719 | – | 0.393 | 0.433 | 0.425 | 0.434 | – | 1 | 0.866 | 0.967 | 0.993 | – | 0.602 | 0.814 | 0.769 | 0.784
8 | NCI-H3122 | 0.836 | 0.962 | 0.933 | 1.08 | 1.23 | 0.46 | 0.534 | 0.618 | 0.626 | 0.667 | 0.986 | 0.961 | 0.991 | 1.01 | 0.965 | 0.301 | 0.369 | 0.409 | 0.475 | 0.452
9 | PC-3 [JPC-3] | 0.8 | 0.737 | 0.784 | 0.759 | 0.86 | 0.774 | 0.858 | 0.733 | 0.853 | 0.706 | 1.05 | 0.969 | 0.946 | 1.04 | 0.944 | 0.855 | 0.931 | 0.884 | 0.864 | 0.85
10 | PC-14 | 0.868 | 1.01 | 0.704 | 0.844 | 0.849 | 0.729 | 0.695 | 0.84 | 0.72 | 0.858 | 1.01 | 0.97 | 1.02 | 0.997 | 0.97 | 0.563 | 0.657 | 0.518 | 0.618 | 0.617
11 | RERF-LC-KJ | 0.637 | 0.565 | 0.582 | 0.59 | 0.593 | 0.507 | 0.63 | 0.621 | 0.613 | 0.61 | 0.864 | 0.926 | 0.857 | 0.919 | 0.844 | 0.536 | 0.478 | 0.527 | 0.501 | 0.505
12 | SK-LU-1 | 0.35 | 0.36 | 0.401 | 0.41 | 0.394 | 0.494 | 0.481 | 0.553 | 0.628 | 0.663 | 1.14 | 1.01 | 1.2 | 1.1 | 1.32 | 0.325 | 0.298 | 0.352 | 0.327 | 0.263
13 | SK-MES-1 | 0.611 | 0.59 | 0.661 | 0.648 | 0.564 | 0.392 | 0.405 | 0.403 | 0.381 | 0.339 | 1.06 | 1.09 | 1.1 | 1.08 | 1.08 | 0.822 | 0.91 | 0.958 | 0.935 | 0.922
14 | SW 1573 | 0.561 | 0.583 | 0.549 | 0.736 | 0.709 | 0.479 | 0.437 | 0.617 | 0.54 | 0.563 | 0.815 | 0.825 | 0.65 | 0.773 | 0.949 | 0.144 | 0.145 | 0.187 | 0.222 | 0.177
